Literature values as cited in patent US9110064B2, “Methods for diagnosis and treatment of endometrial cancer” (THE REGENTS OF THE UNIVERSITY OF CALIFORNIA, priority 2005, dated 2015).

System: PMP22
Details: patients with Charcot Marie Tooth Type I

SMILES: CC(=O)[C@H]1CC[C@H]2[C@@H]3CCC4=CC(=O)CC[C@]4(C)[C@H]3CC[C@]12C [progesterone]
- PMP22 levels: restore normal PMP22 levels
- disease phenotype: ameliorated the disease phenotype
